The values that follow are results of earlier work, collected in US6214381A, “Methazolamide composition and method of use” (Effcon, Inc., priority 1998, dated 2001).

For this series the following is noted: background statement.

Turning to `CC(=O)N=c1sc(S(N)(=O)=O)nn1C` [Methazolamide, methazolamide], the water solubility entry was “water-insoluble”.
